# In patent US20230172885A1, “THIOL-CONTAINING COMPOUNDS FOR USE IN TREATING CORONAVIRUS” (priority 2020, published 2023):
# “Also recorded” adds a separate entry of the source. Where two headings read alike, the source gives them in different places.
# Assays:
# [1] = cited from earlier work
# [2] = system: SARS CoV2 (isolate USA-WA1/2020); parameters: species or system Syrian hamsters (Mesocricetus auratus); conditions: hamster, in vivo
# [3] = system: SARS-CoV-2, isolate USA-WA1/2020; type: cell-based
# [4] = target: T1, RBD^original (SARS-CoV-2 receptor binding domain) binding to ACE2 (Severe acute respiratory syndrome coronavirus 2, UniProt P0DTC2); conditions: for inhibition of binding of RBD^original to ACE2: RBD exposed to drug for 60 minutes, 0 to 20 mM; for binding of RBD^original to ACE2 at one and two hours post exposure and wash: drug at 5 mM for 1 hour, three washes
# T1 construct: ACRO Biosystems); purchased ACRO Biosystems
# [5] = system: SARS-2-S pseudovirus (rVSV-ΔG luciferase); type: cell-based; conditions: pseudovirus pre-incubated with 1.56-100 mM drug for 2 hours, 66-fold dilution
# [6] = type: physicochemical; conditions: 11 mg/mL in 20 mM sodium citrate, pH 4.5, 38.5 mM NaCl; Aerogen Solo vibrating mesh nebulizer
# [7] = system: VSV pseudotype bearing the SARS-2-S protein (VSV-S); type: cell-based, SARS-CoV-2
# [8] = target: T2, SARS-CoV-2 spike protein (SARS-2-S) binding to ACE2 (Severe acute respiratory syndrome coronavirus 2, UniProt P0DTC2)
# T2 construct: Recombinantly expressed RBD of SARS-2-S was first immobilized to a surface
smiles,measurement,setting,value
CC(C)(S)[C@@H](N)C(=O)O [Penicillamine],pKa (thiol group),[1],10.5
NCCS [Cysteamine],pKa (thiol group),[1],8.2
same,"SARS-CoV2 viral titers (viral RNA, RT-qPCR) in lungs",[2],did not decrease; also recorded: does not decrease
same,interleukin-6 levels in lung lavage,[2],lower than control
same,lung weights normalized to terminal body weights,[2],lower than in control groups
same,lymphocytes in BAL fluid,[2],decreases
same,neutrophils in BAL fluid,[2],decreases
same,severity of SARS-CoV2 lung inflammation,[2],did decrease; also recorded: decreased; also recorded: has anti-inflammatory effects
same,total leukocyte counts in the bronchoalveolar lavage (BAL) fluid,[2],lower than control
same,"cytopathic effects (CPE) in virus-infected cells, virus exposed to drug prior to infection",[3],inhibit live virus infection; also recorded: significantly inhibited
same,inhibition of binding of RBD^original to ACE2,[4],decreased binding; also recorded: strong inhibitory effects
same,binding of RBD^original to ACE2 at one and two hours post exposure and wash,[4],binding inhibition was retained for two hours
same,"pseudovirus cell entry, pseudovirus pre-treatment",[5],decrease the entry efficiency
same,potency among thiol drugs in the in vitro assays,SARS-CoV-2,most potent thiol drug
"OCC(S)CS (stereo not shown) [2,3-Dimercaprol]",pKa (thiol group),"[1]; dithiol drugs, second thiol",10.6
O=C(O)C(S)C(S)C(=O)O (stereo not shown) [Dimercaptosuccinic acid],pKa (thiol group),[1],8.9
same,pKa (thiol group),"[1]; dithiol drugs, second thiol",10.8
"O[C@@H]1[C@@H](O)[C@@H](O[C@H]2O[C@H](CS)[C@@H](O)[C@H](O)[C@H]2O)O[C@H](CS)[C@H]1O [MUC-31, 6,6′-dithiotrehalose]","SARS-CoV2 viral titers (viral RNA, RT-qPCR) in lungs",[2]; 0.5 mg/kg,decreases; also recorded: significantly lower
same,interleukin-6 levels in lung lavage,[2]; 0.5 mg/kg,lower than control
same,lung weights normalized to terminal body weights,[2]; 0.5 mg/kg,lower than in control groups
same,macrophages in BAL fluid,[2]; 0.5 mg/kg,decreases
same,severity of SARS-CoV2 lung inflammation,[2]; 0.5 mg/kg,decreased; also recorded: limit SARS-COV-2-associated lung inflammation
same,total leukocyte counts in the bronchoalveolar lavage (BAL) fluid,[2]; 0.5 mg/kg,lower than control
same,"cytopathic effects (CPE) in virus-infected cells, virus exposed to drug prior to infection",[3],inhibit live virus infection; also recorded: significantly inhibited
same,inhibition of binding of RBD^original to ACE2,[4],decreased binding; also recorded: strong inhibitory effects
same,binding of RBD^original to ACE2 at one and two hours post exposure and wash,[4],binding inhibition was retained for two hours
same,"pseudovirus cell entry, pseudovirus pre-treatment",[5],decrease the entry efficiency
same,average mass median aerodynamic diameter (MMAD) of the exposure atmosphere,[6],2.60 µm
same,effectiveness for inhibiting viral entry compared with NAC,[7],more effective than NAC
same,inhibition of VSV-S cellular entry,[7],inhibited VSV-S cellular entry; also recorded: inhibited from entering
same,"inhibition of VSV-S entry, all three concentrations",[7],potent inhibition
same,binding inhibition after drug is washed out of the reaction mixture,[8],binding inhibition persists following drug contact
same,inhibition of binding of ACE2 to SARS-2-S,[8],inhibit binding
same,potency in inhibiting ACE2 binding compared to NAC,[8],stronger potency
CC(C)(S)C(=O)N[C@@H](CS)C(=O)O [Bucillamine],pKa (thiol group),[1],8.4
same,pKa (thiol group),"[1]; dithiol drugs, second thiol",10.2
CC(S)C(=O)NCC(=O)O (stereo not shown) [Tiopronin],pKa (thiol group),[1],8.7
NCCCNCCSP(=O)(O)O [Amifostine],"pseudovirus cell entry, pseudovirus pre-treatment",[5],did not inhibit viral cell entry
N[C@@H](CSCC(=O)O)C(=O)O [Carbocysteine],"pseudovirus cell entry, pseudovirus pre-treatment",[5],did not inhibit viral cell entry
NCCCNCCS [WR-1065],pKa (thiol group),[1],7.7 (WR-1065)
same,inhibition of binding of RBD^original to ACE2,[4],strong inhibitory effects
same,binding of RBD^original to ACE2 at one and two hours post exposure and wash,[4],binding inhibition was retained for two hours
N[C@@H](CCC(=O)N[C@@H](CS)C(=O)NCC(=O)O)C(=O)O [Glutathione],pKa (thiol group),[1],9.2
"CC(=O)N[C@@H](CS)C(=O)O [NAC, N-acetyl-L-cysteine]","cell entry inhibition of VSV-S, only 5 and 25 mM",[7],significant cell entry inhibition
same,inhibition of VSV-S cellular entry,[7],inhibited VSV-S cellular entry; also recorded: inhibited from entering
same,inhibition of binding of ACE2 to SARS-2-S,[8],inhibit binding
"O=S(=O)([O-])CCS.[Na+] [MESNA, 2-mercaptoethane sulfonate, sodium salt]",inhibition of binding of RBD^original to ACE2,[4],strong inhibitory effects
same,binding of RBD^original to ACE2 at one and two hours post exposure and wash,[4],binding inhibition was retained for two hours
same,antiviral efficacy in vitro compared with NAC,SARS-CoV-2,superior antiviral efficacy in vitro
